Source: PubChem BioAssay (NCI)
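Grown in 96-well plates, cells were treated for 48 hours with each compound at five concentrations. Insufficient inhibition: endpoint recorded as highest concentration tested. Abbreviation: GI50, concentration required for 50% inhibition of growth. At the TGI there is no net growth.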

Assays:
Experiment in all cases: growth of human tumour cells (NCI), 48 h
SF-295 CNS = test system: SF-295 CNS
786-0 renal = test system: 786-0 renal
HCT-116 colon = test system: HCT-116 colon
SF-268 CNS = test system: SF-268 CNS
MDA-MB-231 breast = test system: MDA-MB-231 breast
DU-145 prostate = test system: DU-145 prostate
SNB-75 CNS = test system: SNB-75 CNS
ACHN renal = test system: ACHN renal
HOP-92 NSCLC = test system: HOP-92 NSCLC
SK-MEL-5 melanoma = test system: SK-MEL-5 melanoma

COC(=O)[C@H](Cc1cnc[nH]1)NC(=O)[C@@H](NC(=O)Nc1cc(C(F)(F)F)cc(C(F)(F)F)c1)C(C)C was tested, and the GI50 (SF-295 CNS) was 16.1 µM, the TGI (SF-295 CNS) was 31.8 µM and the GI50 (786-0 renal) was 18.9 µM. For the same compound, the TGI (786-0 renal) was 38.6 µM, the GI50 (HCT-116 colon) was 18.9 µM and the TGI (HCT-116 colon) was 40.7 µM. It also gave a GI50 (SF-268 CNS) of 15.2 µM, a TGI (SF-268 CNS) of 31.1 µM and a GI50 (MDA-MB-231 breast) of 12.4 µM. It also gave a TGI (MDA-MB-231 breast) of 25.3 µM, a GI50 (DU-145 prostate) of 17.8 µM and a TGI (DU-145 prostate) of 32.7 µM. It also gave a GI50 (SNB-75 CNS) of 13.5 µM, a TGI (SNB-75 CNS) of 27 µM and a GI50 (ACHN renal) of 17.2 µM. It also gave a TGI (ACHN renal) of 33.4 µM, a GI50 (HOP-92 NSCLC) of 5.33 µM and a GI50 (SK-MEL-5 melanoma) of 17.1 µM. It also gave a TGI (SK-MEL-5 melanoma) of 31.1 µM.

Work on O=C(/C=C\c1ccc([N+](=O)[O-])cc1)c1ccccc(=O)c1O yielded a TGI (SF-295 CNS) of 14.7 µM, a TGI (786-0 renal) of 4.05 µM and a TGI (HCT-116 colon) of 2.35 µM. It also gave a TGI (SF-268 CNS) of 37.3 µM, a TGI (MDA-MB-231 breast) of 17.1 µM and a TGI (DU-145 prostate) of 9.44 µM. For the same compound, the TGI (SNB-75 CNS) was 4.75 µM, the TGI (ACHN renal) was 2.85 µM and the TGI (HOP-92 NSCLC) was 7.77 µM. For the same compound, the TGI (SK-MEL-5 melanoma) was 2.38 µM.

CN(C)c1ccc2oc(=O)c3ccccc3c2c1 was tested, and the TGI (SF-295 CNS) was > 100 µM, the TGI (786-0 renal) was 79.6 µM and the TGI (HCT-116 colon) was > 100 µM. The TGI (SF-268 CNS) was > 100 µM, the TGI (MDA-MB-231 breast) was 82.9 µM and the TGI (DU-145 prostate) was > 100 µM. For the same compound, the TGI (SNB-75 CNS) was 61.8 µM, the TGI (ACHN renal) was 62.9 µM and the TGI (HOP-92 NSCLC) was > 100 µM. For the same compound, the TGI (SK-MEL-5 melanoma) was > 100 µM.

Work on CCN(CC)CCCNc1cc(OC)cc2nc3cc(Cl)ccc3nc12 yielded a GI50 (SF-295 CNS) of 2.33 µM, a TGI (SF-295 CNS) of 6.48 µM and a GI50 (786-0 renal) of 1.18 µM. The TGI (786-0 renal) was 3.5 µM, the GI50 (HCT-116 colon) was 0.508 µM and the TGI (HCT-116 colon) was 3.63 µM. It also gave a GI50 (SF-268 CNS) of 1.62 µM, a TGI (SF-268 CNS) of 8.26 µM and a GI50 (MDA-MB-231 breast) of 2.71 µM. The TGI (MDA-MB-231 breast) was 11.7 µM, the GI50 (DU-145 prostate) was 2.53 µM and the TGI (DU-145 prostate) was 12.4 µM. The GI50 (SNB-75 CNS) was 1.7 µM, the TGI (SNB-75 CNS) was 4.35 µM and the GI50 (ACHN renal) was 1.33 µM. It also gave a TGI (ACHN renal) of 11.8 µM, a GI50 (HOP-92 NSCLC) of 1.69 µM and a TGI (HOP-92 NSCLC) of 9.5 µM. The GI50 (SK-MEL-5 melanoma) was 1.59 µM and the TGI (SK-MEL-5 melanoma) was 2.96 µM.

In the case of COC(=O)c1ccc(CN2C(=O)C(Cl)=C(Nc3cccc(Cl)c3C)C2=O)cc1, the GI50 (SF-295 CNS) is reported as 35.4 µM, the TGI (SF-295 CNS) is reported as > 100 µM and the GI50 (786-0 renal) is reported as 15.6 µM. For the same compound, the TGI (786-0 renal) was 51.5 µM, the GI50 (HCT-116 colon) was 4.44 µM and the TGI (HCT-116 colon) was > 100 µM. The GI50 (SF-268 CNS) was 45.3 µM, the TGI (SF-268 CNS) was > 100 µM and the GI50 (MDA-MB-231 breast) was 6.15 µM. The TGI (MDA-MB-231 breast) was 47.3 µM, the GI50 (DU-145 prostate) was 29.1 µM and the TGI (DU-145 prostate) was > 100 µM. The GI50 (SNB-75 CNS) was 14.8 µM, the TGI (SNB-75 CNS) was 95 µM and the GI50 (ACHN renal) was 33.7 µM. The TGI (ACHN renal) was 90.4 µM, the GI50 (HOP-92 NSCLC) was 17 µM and the TGI (HOP-92 NSCLC) was > 100 µM. It also gave a GI50 (SK-MEL-5 melanoma) of 1.08 µM and a TGI (SK-MEL-5 melanoma) of 3.94 µM.
